Experimental data as given in PMC12040169 (PLOS Biology, 2025).

Experiment: in vitro
Details: human, hela cells, % viability

Question: Which viability at 28.5 h, 10 µM does the source give for `O=C(Oc1cccc(-c2cnc3ccccc3n2)c1)c1ccc(S(=O)(=O)N2CCCCC2)cc1` [CBK267785] here?
Answer: 104%

Question: Which viability at 28.5 h, 10 µM does the source give for `O=C(O)c1[nH]c2ccccc2c1C(c1cccs1)c1c(C(=O)O)[nH]c2ccccc12` [CBK267786] here?
Answer: 118%

Question: With `N#CC1=C(N)Oc2[nH]nc(-c3ccccc3)c2C12C(=O)N(Cc1ccccc1)c1ccccc12` (centres unmarked) [CBK267787] as the molecule, how does the viability at 28.5 h, 10 µM read?
Answer: 93.7%

Question: Which viability at 28.5 h, 10 µM does the source give for `O=C(O)c1[nH]c2ccccc2c1C(c1ccc(OC2CCCC2)cc1)c1c(C(=O)O)[nH]c2ccccc12` [CBK267789] here?
Answer: 85.9%

Question: For `CN(C)CCNCCCSc1ccc(Cl)cc1` [CBK267794C], which viability at 28.5 h, 10 µM is on record?
Answer: 104%

Question: With `O=C(c1c[nH]c2ccccc12)C(O)C(c1ccccc1)N1CCCCC1` (centres unmarked) [CBK267799] as the molecule, how does the viability at 28.5 h, 10 µM read?
Answer: 94.1%

Question: With `CN(C)CCNCCOc1cccc([N+](=O)[O-])c1` [CBK267803C] as the molecule, how does the viability at 28.5 h, 10 µM read?
Answer: 99.7%

Question: Which viability at 28.5 h, 10 µM does the source give for `COc1cc(C(c2c(C(=O)O)[nH]c3ccccc23)c2c(C(=O)O)[nH]c3ccccc23)cc(I)c1O` [CBK267804] here?
Answer: 90.6%

Question: With `Cc1ccc(OC(=O)c2ccc(S(=O)(=O)N(C)C)cc2)c(-n2nc3ccccc3n2)c1` [CBK267805] as the molecule, how does the viability at 28.5 h, 10 µM read?
Answer: 81.2%

Question: With `O=C(Nc1ccccc1)c1ccc(S(=O)(=O)N2CCC(C(=O)O)CC2)cc1` [CBK267806] as the molecule, how does the viability at 28.5 h, 10 µM read?
Answer: 89.7%

Question: With `CN(C)S(=O)(=O)c1ccc(C(=O)Nc2ccccc2O)cc1` [CBK267809] as the molecule, how does the viability at 28.5 h, 10 µM read?
Answer: 94.1%

Question: For `CC(NC(=O)c1ccccc1Br)c1nnc(SCc2ccc([N+](=O)[O-])cc2)n1C` (centres unmarked) [CBK267810], which viability at 28.5 h, 10 µM is on record?
Answer: 103%

Question: With `O=C(O)c1[nH]c2ccccc2c1C(c1ccsc1)c1c(C(=O)O)[nH]c2ccccc12` [CBK267811] as the molecule, how does the viability at 28.5 h, 10 µM read?
Answer: 103%

Question: For `O=C(Oc1ccc(-c2cnc3ccccc3n2)cc1)c1ccc(S(=O)(=O)N2CCCCC2)cc1` [CBK267812], which viability at 28.5 h, 10 µM is on record?
Answer: 93.7%

Question: With `O=C(O)c1[nH]c2ccccc2c1C(c1cc(Cl)cc([N+](=O)[O-])c1O)c1c(C(=O)O)[nH]c2ccccc12` [CBK267814] as the molecule, how does the viability at 28.5 h, 10 µM read?
Answer: 95.6%

Question: For `CCN1CCCC1CNS(=O)(=O)c1cc(C(N)=O)ccc1OC` (centres unmarked) [CBK267815], which viability at 28.5 h, 10 µM is on record?
Answer: 115%

Question: With `Cc1ccc(C)c(OCCNCCN(C)C)c1Cl` [CBK267816C] as the molecule, how does the viability at 28.5 h, 10 µM read?
Answer: 88.5%

Question: Which viability at 28.5 h, 10 µM does the source give for `CN(Cc1ccccc1)C(=O)c1ccccc1NC(=O)c1ccccc1` [CBK267818] here?
Answer: 107%

Question: Which viability at 28.5 h, 10 µM does the source give for `Cc1ccc(SCCCn2cnc3ccccc32)cc1` [CBK267821G] here?
Answer: 93.7%

Question: Which viability at 28.5 h, 10 µM does the source give for `CN1CCN(C(c2ccccc2)C(O)C(=O)c2c[nH]c3ccccc23)CC1` (centres unmarked) [CBK267823] here?
Answer: 103%

Question: With `CC1(C)[N+]([O-])=CC(c2ccc(-c3ccccc3)cc2)=[N+]([O-])C1(C)C` [CBK267825] as the molecule, how does the viability at 28.5 h, 10 µM read?
Answer: 98.7%

Question: Which viability at 28.5 h, 10 µM does the source give for `O=C(CSCc1ccccc1Cl)NNC(=O)c1cccnc1` [CBK267826] here?
Answer: 113%

Question: Which viability at 28.5 h, 10 µM does the source give for `COc1cccc(NC(=O)c2ccc(N(C)Cc3ccccc3)c([N+](=O)[O-])c2)c1` [CBK267827] here?
Answer: 95.1%

Question: For `O=C(CNC(=O)C1CCCCC1)NNC(=O)c1ccccc1Br` [CBK267828], which viability at 28.5 h, 10 µM is on record?
Answer: 102%

Question: With `O=C(Nc1ccc(/C=C/c2ccccc2)cc1)c1ccc(COc2ccccc2)o1` [CBK267829] as the molecule, how does the viability at 28.5 h, 10 µM read?
Answer: 91.3%

Question: For `Cc1nnc(SCc2nc3ccccc3c(=O)[nH]2)[nH]1` [CBK267830], which viability at 28.5 h, 10 µM is on record?
Answer: 90%

Question: Which viability at 28.5 h, 10 µM does the source give for `Cn1cccc1CNCCc1ccc(S(N)(=O)=O)cc1` [CBK267831C] here?
Answer: 98.7%

Question: For `COc1ccc(CC(=O)Nc2ccc(S(=O)(=O)NC(C)C)cc2)cc1` [CBK267833], which viability at 28.5 h, 10 µM is on record?
Answer: 93.2%

Question: For `Cc1ccc(NS(=O)(=O)c2ccc(OCC(=O)N3CCN(C)CC3)c(C)c2)cc1` [CBK267834], which viability at 28.5 h, 10 µM is on record?
Answer: 110%

Question: For `COc1ccc(Cl)cc1NC(=O)CN(c1cccc(C(C)=O)c1)S(C)(=O)=O` [CBK267835], which viability at 28.5 h, 10 µM is on record?
Answer: 108%

Question: With `Cc1ccccc1NC(=O)NCCCN1CCN(C)CC1` [CBK267837] as the molecule, how does the viability at 28.5 h, 10 µM read?
Answer: 85.2%

Question: For `COc1cc(/C=C(/C#N)c2nc3ccccc3[nH]2)ccc1OCc1ccc(C(=O)O)o1` [CBK267839], which viability at 28.5 h, 10 µM is on record?
Answer: 90.7%

Question: For `COc1ccc(C(=O)NC(=N)NCCc2c[nH]c3ccccc23)cc1` [CBK267840], which viability at 28.5 h, 10 µM is on record?
Answer: 111%

Question: For `O=C(CSCc1ccc(Br)cc1)Nc1ccc(S(=O)(=O)N2CCOCC2)cc1` [CBK267845], which viability at 28.5 h, 10 µM is on record?
Answer: 97.1%

Question: With `COc1ccc(OC)c(NC(=O)CNC(=O)c2ccccc2F)c1` [CBK267846] as the molecule, how does the viability at 28.5 h, 10 µM read?
Answer: 91.5%

Question: For `COc1ccc(C)cc1S(=O)(=O)N(CC(=O)O)Cc1ccccc1` [CBK267847], which viability at 28.5 h, 10 µM is on record?
Answer: 108%

Question: With `O=C(O)c1cc(-c2ccc(F)cc2)n[nH]1` [CBK267848] as the molecule, how does the viability at 28.5 h, 10 µM read?
Answer: 96.1%

Question: For `CC(=O)Nc1ccc(C(=O)CSc2nnc(C)o2)cc1` [CBK267851], which viability at 28.5 h, 10 µM is on record?
Answer: 107%

Question: With `O=C(OCc1cccc(C(=O)c2ccccc2)c1)c1ccc(-c2nnc(-c3ccccc3)o2)cc1` [CBK267852] as the molecule, how does the viability at 28.5 h, 10 µM read?
Answer: 104%

Question: With `Nc1nnc(SCC(=O)NCc2ccc3c(c2)OCO3)s1` [CBK267853] as the molecule, how does the viability at 28.5 h, 10 µM read?
Answer: 101%

Question: For `CS(=O)(=O)N(CC(=O)Nc1ccccc1C(F)(F)F)Cc1ccc(Cl)cc1` [CBK267854], which viability at 28.5 h, 10 µM is on record?
Answer: 108%

Question: Which viability at 28.5 h, 10 µM does the source give for `COc1c(C)cc(Br)cc1C(=O)NC(=S)Nc1ccccc1N1CCN(C)CC1` [CBK267855C] here?
Answer: 97.1%

Question: For `Fc1ccc(OCc2ccc(-c3nnn[nH]3)cc2)cc1` [CBK267859], which viability at 28.5 h, 10 µM is on record?
Answer: 106%

Question: For `COC(=O)c1ccccc1NC(=O)CNC(=O)c1ccc(Cl)cc1Cl` [CBK267860], which viability at 28.5 h, 10 µM is on record?
Answer: 105%

Question: For `N#Cc1ccc(N2CCN(CCCNC(=O)Nc3ccccc3)CC2)cc1` [CBK267861], which viability at 28.5 h, 10 µM is on record?
Answer: 95%

Question: With `O=[N+]([O-])c1cccc(S(=O)(=O)NCCSc2ccccc2)c1` [CBK267862] as the molecule, how does the viability at 28.5 h, 10 µM read?
Answer: 94.1%

Question: For `N#CCCn1cc(C(=O)Nc2ccc(C(=O)O)cc2)c(-c2cc3ccccc3o2)n1` [CBK267866], which viability at 28.5 h, 10 µM is on record?
Answer: 96.6%

Question: Which viability at 28.5 h, 10 µM does the source give for `Cn1c(SCC(=O)Nc2ccnc3ccccc23)nnc1-c1ccncc1` [CBK267867] here?
Answer: 105%

Question: With `O=C(NCCSCc1ccco1)Nc1ccc(Cl)cc1` [CBK267869] as the molecule, how does the viability at 28.5 h, 10 µM read?
Answer: 97.3%

Question: Which viability at 28.5 h, 10 µM does the source give for `O=C(NC(=S)Nc1cccc(-c2nc3ncccc3o2)c1)c1ccc(-c2cccc([N+](=O)[O-])c2)o1` [CBK267870] here?
Answer: 83.4%

Question: Which viability at 28.5 h, 10 µM does the source give for `O=C(CSc1nc2ccccc2c2nc3ccccc3n12)Nc1cccc(Cl)c1` [CBK267872] here?
Answer: 94.2%

Question: Which viability at 28.5 h, 10 µM does the source give for `Cc1ncc([N+](=O)[O-])n1Cc1nnc(S)n1C` [CBK267873] here?
Answer: 95.4%

Question: Which viability at 28.5 h, 10 µM does the source give for `CCS(=O)(=O)c1nc2ccccc2n1CC(=O)Nc1ccccc1C(=O)OC` [CBK267877] here?
Answer: 90%

Question: For `Cc1ccccc1CSc1nc2ccc([N+](=O)[O-])cc2[nH]1` [CBK267879], which viability at 28.5 h, 10 µM is on record?
Answer: 96.2%

Question: For `NCCCNc1ccc(C(=O)Nc2ccc(Cl)cc2)cc1[N+](=O)[O-]` [CBK267880], which viability at 28.5 h, 10 µM is on record?
Answer: 116%

Question: With `COCCCn1c(CCC(=O)O)ccc1-c1ccc(F)cc1` [CBK267886] as the molecule, how does the viability at 28.5 h, 10 µM read?
Answer: 104%

Question: With `Cc1cc(OC(C)C(=O)Nc2ccc(S(=O)(=O)Nc3onc(C)c3C)cc2)cc(C)c1Cl` (centres unmarked) [CBK267887] as the molecule, how does the viability at 28.5 h, 10 µM read?
Answer: 98.7%

Question: With `CCn1c(COc2ccccc2)nnc1Sc1ccc([N+](=O)[O-])cc1C=O` [CBK267888] as the molecule, how does the viability at 28.5 h, 10 µM read?
Answer: 105%

Question: With `COc1ccc(S(=O)(=O)N(C)CC(=O)Nc2ccc(C(N)=O)cc2)cc1Cl` [CBK267891] as the molecule, how does the viability at 28.5 h, 10 µM read?
Answer: 109%

Question: Which viability at 28.5 h, 10 µM does the source give for `Nc1n[nH]c(SCC(=O)N2CCN(C(c3ccccc3)c3ccccc3)CC2)n1` [CBK267893] here?
Answer: 86.5%

Question: For `COc1ccc(S(=O)(=O)N(C)CC(=O)N2CCOCC2)cc1C` [CBK267898], which viability at 28.5 h, 10 µM is on record?
Answer: 95.8%

Question: Which viability at 28.5 h, 10 µM does the source give for `S=C1NCN(Cc2ccc3c(c2)OCO3)CN1` [CBK267899] here?
Answer: 87.1%
